How the values were obtained:
Format in all cases: in vivo
[1] = test system: barnyardgrass; assay: Test Example 1: herbicidal effects in preemergence treatment under submerged conditions; details: dose 2.52 g/a
From the text: (§1) Test on the Herbicidal Effects in Preemergence Treatment on Weeds Under Submerged Conditions
(§2) Alluvial soil was put in 1/30000-are styrol cups and admixed with water so that it was submerged at a depth of 4 cm. In each cup, seeds of barnyardgrass, bulrush and ducksalad were sown together, and rice seedlings at the 2.5-leaf stage were transplanted. On the same day as the seeding, emulsifiable concentrates containing compounds of the present invention formulated in accordance with Formulation Example 2 were applied to the water surfaces at predetermined doses after diluted with water. The cups were placed in a greenhouse at 25 to 30° C. to grow the plants. Three weeks after the application, the herbicidal effects against various plants were determined on the following evaluation scale.
(§3) 5 mortality of 90% or above (nearly complete death)
(§4) 4 mortality of at least 70% and less than 90%
(§5) 3 mortality of at least 40% and less than 70%
(§6) 2 mortality of at least 20% and less than 40%
(§7) 1 mortality of at least 5% and less than 20%
(§8) 0 mortality of less than 5% (almost ineffective)
(§9) A: barnyardgrass, B: bulrush, C: ducksalad, D: large crabgrass, E: giant foxtail, F: wild oat, G: water foxtail, H: Italian ryegrass, I: velvetleaf, J: common ragweed, K: redroot pigweed, L: common lambsquater, M: posumbu knotweed, N: common chickweed, O: beadstraw, a: transplanted rice, b: corn, c: soybean, d: direct-seeded rice, e: wheat, f: sugar beet.
(§10) The doses (g/a) represents the amounts in g per 1 are (a) applied after adjustment of concentration adjustment.

[2] = test system: bulrush; assay: as above; details: dose 2.52 g/a
From the text: as §1, §2, §3, §4, §5, §6, §7, §8, §9, §10

[3] = test system: ducksalad; assay: as above; details: dose 2.52 g/a
From the text: as §1, §2, §3, §4, §5, §6, §7, §8, §9, §10

[4] = test system: transplanted rice; assay: Test Example 1: preemergence treatment under submerged conditions, effect on crop; details: dose 2.52 g/a
From the text: as §1, §2, §3, §4, §5, §6, §7, §8, §9, §10

[5] = test system: barnyardgrass; assay: Test Example 2: herbicidal effects during the vegetation period under submerged conditions; details: treatment during the vegetation period under submerged conditions; dose 2.52 g/a
Experimental: (§11) Test on the Herbicidal Effects on Weeds During the Vegetation Period Under Submerged Conditions
(§12) Alluvial soil was put in 1/30000-are styrol cups and admixed with water so that it was submerged at a depth of 4 cm. In each cup, seeds of barnyardgrass, bulrush and ducksalad were sown together, and the cups were placed in a greenhouse at 25 to 30° C. to grow the plants. When the barnyardgrass, bulrush and ducksalad reached the 1- or 2-leaf stage, emulsifiable concentrates containing compounds of the present invention formulated in accordance with Formulation Example 2 were applied to the water surfaces at predetermined doses after diluted with water. Three weeks after the application, the herbicidal effects against various plants were determined on the same evaluation scale as in Test Example 1.
as §9, §10

[6] = test system: bulrush; assay: as above; details: treatment during the vegetation period under submerged conditions; dose 2.52 g/a
Experimental: as §11, §12, §9, §10

[7] = test system: ducksalad; assay: as above; details: treatment during the vegetation period under submerged conditions; dose 2.52 g/a
Experimental: as §11, §12, §9, §10

[8] = test system: Italian ryegrass; assay: Test Example 3: herbicidal effects in soil treatment; details: dose 3.2 g/a
From the text: (§13) Test on the Herbicidal Effects in Soil Treatment
(§14) Sterilized diluvial soil was put in plastic boxes with a length of 21 cm, a width of 13 cm and a depth of 7 cm, and seeds of barnyardgrass, large crabgrass, giant foxtail, wild oat, blackgrass, velvetleaf, common ragweed, redroot pigweed, common lambsquater, posumbu knotweed, common chickweed corn, soybean, rice, wheat and sugar beet were sown in spots and covered with an about 1.5 cm-thick soil layer. Emulsifiable concentrates containing compounds of the present invention formulated in accordance with Formulation Example 2 were uniformly applied to the soil surfaces at predetermined doses through a small sprayer after dilute with water. Three weeks after the application, the herbicidal effects against various plants were determined on the same evaluation scale as in Test Example 1.
as §9, §10

[9] = test system: barnyardgrass; assay: as above; details: dose 3.2 g/a
From the text: as §13, §14, §9, §10

[10] = test system: common chickweed; assay: as above; details: dose 3.2 g/a
From the text: as §13, §14, §9, §10

[11] = test system: common lambsquater; assay: as above; details: dose 3.2 g/a
From the text: as §13, §14, §9, §10

[12] = test system: common ragweed; assay: as above; details: dose 3.2 g/a
From the text: as §13, §14, §9, §10

[13] = test system: giant foxtail; assay: as above; details: dose 3.2 g/a
From the text: as §13, §14, §9, §10

[14] = test system: large crabgrass; assay: as above; details: dose 3.2 g/a
From the text: as §13, §14, §9, §10

[15] = test system: posumbu knotweed; assay: as above; details: dose 3.2 g/a
From the text: as §13, §14, §9, §10

[16] = test system: redroot pigweed; assay: as above; details: dose 3.2 g/a
From the text: as §13, §14, §9, §10

[17] = test system: water foxtail; assay: as above; details: dose 3.2 g/a
From the text: as §13, §14, §9, §10

[18] = test system: Italian ryegrass; assay: Test Example 4: herbicidal effect in foliage treatment; details: dose 3.2 g/a, three weeks after application
From the text: (§15) Test on the Herbicidal Effect in Foliage Treatment
as §14, with “chickweed,” for “chickweed”, “The boxes were placed in a greenhouse at 25 to 30° C. to grow the plants. After 14 days, emulsifiable” for “Emulsifiable”, “foliage” for “soil surfaces”, “diluted” for “dilute”
as §9, §10

[19] = test system: barnyardgrass; assay: as above; details: dose 3.2 g/a, three weeks after application
From the text: as §15
as §14, with “chickweed,” for “chickweed”, “The boxes were placed in a greenhouse at 25 to 30° C. to grow the plants. After 14 days, emulsifiable” for “Emulsifiable”, “foliage” for “soil surfaces”, “diluted” for “dilute”
as §9, §10

[20] = test system: beadstraw; assay: as above; details: dose 3.2 g/a, three weeks after application
From the text: as §15
as §14, with “chickweed,” for “chickweed”, “The boxes were placed in a greenhouse at 25 to 30° C. to grow the plants. After 14 days, emulsifiable” for “Emulsifiable”, “foliage” for “soil surfaces”, “diluted” for “dilute”
as §9, §10

[21] = test system: common chickweed; assay: as above; details: dose 3.2 g/a, three weeks after application
From the text: as §15
as §14, with “chickweed,” for “chickweed”, “The boxes were placed in a greenhouse at 25 to 30° C. to grow the plants. After 14 days, emulsifiable” for “Emulsifiable”, “foliage” for “soil surfaces”, “diluted” for “dilute”
as §9, §10

[22] = test system: common lambsquater; assay: as above; details: dose 3.2 g/a, three weeks after application
From the text: as §15
as §14, with “chickweed,” for “chickweed”, “The boxes were placed in a greenhouse at 25 to 30° C. to grow the plants. After 14 days, emulsifiable” for “Emulsifiable”, “foliage” for “soil surfaces”, “diluted” for “dilute”
as §9, §10

[23] = test system: common ragweed; assay: as above; details: dose 3.2 g/a, three weeks after application
From the text: as §15
as §14, with “chickweed,” for “chickweed”, “The boxes were placed in a greenhouse at 25 to 30° C. to grow the plants. After 14 days, emulsifiable” for “Emulsifiable”, “foliage” for “soil surfaces”, “diluted” for “dilute”
as §9, §10

[24] = test system: giant foxtail; assay: as above; details: dose 3.2 g/a, three weeks after application
From the text: as §15
as §14, with “chickweed,” for “chickweed”, “The boxes were placed in a greenhouse at 25 to 30° C. to grow the plants. After 14 days, emulsifiable” for “Emulsifiable”, “foliage” for “soil surfaces”, “diluted” for “dilute”
as §9, §10

[25] = test system: large crabgrass; assay: as above; details: dose 3.2 g/a, three weeks after application
From the text: as §15
as §14, with “chickweed,” for “chickweed”, “The boxes were placed in a greenhouse at 25 to 30° C. to grow the plants. After 14 days, emulsifiable” for “Emulsifiable”, “foliage” for “soil surfaces”, “diluted” for “dilute”
as §9, §10

[26] = test system: posumbu knotweed; assay: as above; details: dose 3.2 g/a, three weeks after application
From the text: as §15
as §14, with “chickweed,” for “chickweed”, “The boxes were placed in a greenhouse at 25 to 30° C. to grow the plants. After 14 days, emulsifiable” for “Emulsifiable”, “foliage” for “soil surfaces”, “diluted” for “dilute”
as §9, §10

[27] = test system: redroot pigweed; assay: as above; details: dose 3.2 g/a, three weeks after application
From the text: as §15
as §14, with “chickweed,” for “chickweed”, “The boxes were placed in a greenhouse at 25 to 30° C. to grow the plants. After 14 days, emulsifiable” for “Emulsifiable”, “foliage” for “soil surfaces”, “diluted” for “dilute”
as §9, §10

[28] = test system: velvetleaf; assay: as above; details: dose 3.2 g/a, three weeks after application
From the text: as §15
as §14, with “chickweed,” for “chickweed”, “The boxes were placed in a greenhouse at 25 to 30° C. to grow the plants. After 14 days, emulsifiable” for “Emulsifiable”, “foliage” for “soil surfaces”, “diluted” for “dilute”
as §9, §10

[29] = test system: water foxtail; assay: as above; details: dose 3.2 g/a, three weeks after application
From the text: as §15
as §14, with “chickweed,” for “chickweed”, “The boxes were placed in a greenhouse at 25 to 30° C. to grow the plants. After 14 days, emulsifiable” for “Emulsifiable”, “foliage” for “soil surfaces”, “diluted” for “dilute”
as §9, §10

SMILES: CC1(C(F)(F)F)CC(=O)N(Cc2ccccc2N(C(=O)C2CC2)S(=O)(=O)C(F)(F)F)CO1 (centres unmarked) [II-48]
- A: barnyardgrass, herbicidal effect (evaluation scale 0-5) [1]: 5 (mortality of 90% or above (nearly complete death))
- B: bulrush, herbicidal effect (evaluation scale 0-5) [2]: 5 (mortality of 90% or above (nearly complete death))
- C: ducksalad, herbicidal effect (evaluation scale 0-5) [3]: 5 (mortality of 90% or above (nearly complete death))
- a: transplanted rice, effect on crop (evaluation scale 0-5) [4]: 0 (mortality of less than 5% (almost ineffective))
- A: barnyardgrass, herbicidal effect (evaluation scale 0-5) [5]: 5 (mortality of 90% or above (nearly complete death))
- B: bulrush, herbicidal effect (evaluation scale 0-5) [6]: 5 (mortality of 90% or above (nearly complete death))
- C: ducksalad, herbicidal effect (evaluation scale 0-5) [7]: 5 (mortality of 90% or above (nearly complete death))
- H: Italian ryegrass, herbicidal effect (evaluation scale 0-5) [8]: 0 (mortality of less than 5% (almost ineffective))
- A: barnyardgrass, herbicidal effect (evaluation scale 0-5) [9]: 5 (mortality of 90% or above (nearly complete death))
- N: common chickweed, herbicidal effect (evaluation scale 0-5) [10]: 4 (mortality of at least 70% and less than 90%)
- L: common lambsquater, herbicidal effect (evaluation scale 0-5) [11]: 0 (mortality of less than 5% (almost ineffective))
- J: common ragweed, herbicidal effect (evaluation scale 0-5) [12]: 4 (mortality of at least 70% and less than 90%)
- E: giant foxtail, herbicidal effect (evaluation scale 0-5) [13]: 4 (mortality of at least 70% and less than 90%)
- D: large crabgrass, herbicidal effect (evaluation scale 0-5) [14]: 5 (mortality of 90% or above (nearly complete death))
- M: posumbu knotweed, herbicidal effect (evaluation scale 0-5) [15]: 3 (mortality of at least 40% and less than 70%)
- K: redroot pigweed, herbicidal effect (evaluation scale 0-5) [16]: 0 (mortality of less than 5% (almost ineffective))
- G: water foxtail, herbicidal effect (evaluation scale 0-5) [17]: 5 (mortality of 90% or above (nearly complete death))
- H: Italian ryegrass, herbicidal effect [18]: 0 (mortality of less than 5% (almost ineffective))
- A: barnyardgrass, herbicidal effect [19]: 4 (mortality of at least 70% and less than 90%)
- O: beadstraw, herbicidal effect [20]: 4 (mortality of at least 70% and less than 90%)
- N: common chickweed, herbicidal effect [21]: 3 (mortality of at least 40% and less than 70%)
- L: common lambsquater, herbicidal effect [22]: 0 (mortality of less than 5% (almost ineffective))
- J: common ragweed, herbicidal effect [23]: 2 (mortality of at least 20% and less than 40%)
- E: giant foxtail, herbicidal effect [24]: 2 (mortality of at least 20% and less than 40%)
- D: large crabgrass, herbicidal effect [25]: 1 (mortality of at least 5% and less than 20%)
- M: posumbu knotweed, herbicidal effect [26]: 2 (mortality of at least 20% and less than 40%)
- K: redroot pigweed, herbicidal effect [27]: 0 (mortality of less than 5% (almost ineffective))
- I: velvetleaf, herbicidal effect [28]: 4 (mortality of at least 70% and less than 90%)
- G: water foxtail, herbicidal effect [29]: 2 (mortality of at least 20% and less than 40%)

— patent publication US20120029187A1, “HALOALKYLSULFONANILIDE DERIVATIVE” (Nissan Chemical Industries, Ltd., priority 2009, published 2012)
